Data as given in US7491794B2, “Macrocyclic compounds as inhibitors of viral replication” (Intermune, Inc., priority 2003, dated 2009).
pIC50: −log10 of the molar value.

Target: T1, NS3-NS4 protease (Hepatitis C virus genotype 1a, UniProt P27958)
T1 construct: Recombinant E. coli or Baculovirus full-length NS3 was diluted to 3.33 μM with assay buffer; made in house; host or cells: E. coli or baculovirus (BV) system
Test: NS3-NS4 protease assay / NS3 inhibition assay, Section C
Assay type: biochemical
Conditions: read-out: NS3-NS4 IC50
Method: NS3 complex formation with NS4A-2.
Recombinant E. coli or Baculovirus full-length NS3 was diluted to 3.33 μM with assay buffer and transfered material to an eppendorf tube and place in water bath in 4° C. refrigerator. The appropriate amount of NS4A-2 to 8.3 mM in assay buffer was added to equal the volume of NS3 in step 2.1.1 (conversion factor −3.8 mg/272 μL assay buffer). The material was transferred to an eppendorf tube and place in water bath in 4° C. refrigerator.
After equilibration to 4° C., equal volumes of NS3 and NS4A-2 solutions were combined in an eppendorf tube, mix gently with a manual pipettor, and incubate mixture for 15 minutes in the 4° C. water bath. Final concentrations in the mixture are […] NS3, 4.15 mM NS4A-2 (2485-fold molar excess NS4A-2).
After 15 minutes at 4° C., the NS3/NS4A-2 eppendorf tube was removed and place it in a room temperature water bath for 10 minutes. NS3/NS4A-2 was alliquoted at appropriate volumes and store at −80° C. (E. coli NS3 run at 2 nM in assay, aliquot at 25 μL. BV NS3 run at 3 nM in assay, aliquot at 30 μL).
Step 2.2.5. Sample compounds were dissolved to 10 mM in DMSO then diluted to 2.5 mM (1:4) in DMSO.
Step 2.2.6. The E. coli. NS3/NS4A-2 was diluted to 4 nM NS3 (1:417.5 of […] stock−18 μL 1.67 μM stock+7497 μL assay buffer). The BV NS3/NS4A-2 was diluted to 6 nM NS3 (1:278.3 of 1.67 μM stock−24 μL 1.67 μM stock+6655 μL assay buffer).
Step 2.2.7. Using the manual multichannel pipettor, and being careful not to introduce bubbles into the plate, 50 μL assay buffer were added to wells A01-H01 of a black Costar 96-well polypropylene storage plate.
Step 2.2.8. Using the manual multichannel pipettor, and being careful not to introduce bubbles into the plate, 50 μL of diluted NS3/NS4A-2 from step 2.2.6 were added to wells A02-H12 of plate in step 2.2.7.
Step 2.2.9. Using the manual multichannel pipettor, and being careful not to introduce bubbles into the plate, 25 μL of the wells in drug dilution plate in step 2.2.5 were transferred to corresponding wells in assay plate in step 2.2.8. The tips on multichannel pipettor were changed for each row of compounds transferred.
Step 2.2.10. Using the manual multichannel pipettor, and being careful not to introduce bubbles into the plate, the contents of the wells from the assay plate in step 2.2.9 were mixed by aspirating and dispensing 35 μL of the 75 μL in each well five times. The tips on the multichannel pipettor were changed for each row of wells mixed.
Step 2.2.11. The plate was covered with a polystyrene plate lid, and the plate from step 2.2.10 containing NS3 protease and sample compounds was pre-incubated 10 minutes at room temperature.
While the plate from step 2.2.11 was pre-incubating, the RETS1 substrate was diluted in a 15 mL polypropylene centrifuge tube. The RETS1 substrate was diluted to 8 μM (1:80.75 of 646 μM stock−65 μL 646 μM stock+5184 μL assay buffer).
After the plate in step 2.2.11 was done pre-incubating, and using the manual multichannel, 25 μL of substrate were added to all wells on the plate. The contents of the wells of plate were quickly mixed, as in step 2.2.10, but mixing 65 μL of the 100 μL in the wells.
The plate was read in kinetic mode on the Molecular Devices SpectraMax Gemini XS plate reader. Reader settings: Read time: 30 minutes, Interval: 36 seconds, Reads: 51, Excitation λ: 335 nm, Emission λ: 495 nm, cutoff: 475 nm, Automix: off, Calibrate: once, PMT: high, Reads/well: 6, Vmax pts: 21 or 28/51 depending on length of linearity of reaction.
IC50s were determined using a four parameter curve fit equation, and converted to Ki's using the following Km's:
where Ki=IC50/(1+[S]/Km))

T1 sequence (P27958 1027-1657): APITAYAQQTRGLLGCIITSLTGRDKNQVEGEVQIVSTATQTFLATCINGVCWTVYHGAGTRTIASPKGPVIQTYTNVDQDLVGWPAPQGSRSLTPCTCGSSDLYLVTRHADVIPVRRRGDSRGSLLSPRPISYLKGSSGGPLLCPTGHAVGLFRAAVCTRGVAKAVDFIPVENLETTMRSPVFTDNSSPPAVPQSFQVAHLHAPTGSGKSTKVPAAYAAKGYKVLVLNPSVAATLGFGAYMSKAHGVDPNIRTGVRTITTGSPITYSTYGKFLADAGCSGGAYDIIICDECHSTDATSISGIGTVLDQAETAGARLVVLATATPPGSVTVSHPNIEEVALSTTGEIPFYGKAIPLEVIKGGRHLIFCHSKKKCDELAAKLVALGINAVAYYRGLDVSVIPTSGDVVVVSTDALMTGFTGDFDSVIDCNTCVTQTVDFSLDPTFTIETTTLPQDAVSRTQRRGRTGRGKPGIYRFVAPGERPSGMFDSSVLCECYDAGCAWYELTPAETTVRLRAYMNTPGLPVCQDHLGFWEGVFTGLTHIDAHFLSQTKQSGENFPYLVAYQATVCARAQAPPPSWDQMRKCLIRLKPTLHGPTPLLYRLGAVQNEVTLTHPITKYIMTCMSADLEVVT

CC(C)(C)OC(=O)N[C@H]1CCCCC/C=C\[C@@H]2C[C@@]2(C(=O)NS(=O)(=O)Nc2nccs2)NC(=O)[C@@H]2C[C@@H](OC(=O)N3Cc4ccccc4C3)CN2C1=O [Compound 105, (1S,4R,6S,14S,18R)-1,3-Dihydro-isoindole-2-carboxylic acid 14-tert-butoxycarbonylamino-4-(thiazol-2-ylaminosulfonylaminocarbonyl)-2,15-dioxo-3,16-diaza-tricyclo[14.3.0.0^4,6]nonadec-7-en-18-yl ester] and CC(C)(C)OC(=O)N[C@H]1CCCCC/C=C\[C@@H]2C[C@@]2(C(=O)NS(=O)(=O)NC2(C#N)CC2)NC(=O)[C@@H]2C[C@@H](OC(=O)N3Cc4ccccc4C3)CN2C1=O [Compound 123, (1S,4R,6S,14S,18R)-1,3-Dihydro-isoindole-2-carboxylic acid 14-tert-butoxycarbonylamino-4-(N-(1-cyanocyclopropyl)aminosulfonyl-aminocarbonyl)-2,15-dioxo-3,16-diaza-tricyclo[14.3.0.0^4,6]nonadec-7-en-18-yl ester] cannot be ordered by pIC50: over 7.00 for the first, over 7.00 for the second.

CC(C)(C)OC(=O)N[C@H]1CCCCC/C=C\[C@@H]2C[C@@]2(C(=O)NS(=O)(=O)N2CCCC2)NC(=O)C2C[C@@H](OC(=O)N3CCc4ccccc4C3CN3CCOCC3)CN2C1=O (stereo partly drawn) [Compound 111, (1S,4R,6S,14S,18R)-1-Morpholine-4-ylmethyl-3,4-dihydro-1H-isoquinoline-2-carboxylic acid 14-tert-butoxycarbonylamino-2,15-dioxo-4-(pyrrolidine-1-sulfonylaminocarbonyl)-3,16-diaza-tricyclo[14.3.0.0^4,6]nonadec-7-en-18-yl ester] and CC(C)(C)OC(=O)N[C@H]1CCCCC/C=C\[C@@H]2C[C@@]2(C(=O)NS(=O)(=O)N2CCOCC2)NC(=O)[C@@H]2C[C@@H](OC(=O)N3CCc4ccccc4C3CN3CCCCC3)CN2C1=O (stereo partly drawn) [Compound 110, (1S,4R,6S,14S,18R)-1-Piperidin-1-ylmethyl-3,4-dihydro-1H-isoquinoline-2-carboxylic acid 14-tert-butoxycarbonylamino-2,15-dioxo-4-(morpholino-sulfonylaminocarbonyl)-3,16-diaza-tricyclo[14.3.0.0^4,6]nonadec-7-en-18-yl ester] cannot be ordered by pIC50: over 7.00 for the first, over 6.00 for the second.

CC(C)(C)OC(=O)N[C@H]1CCCCC/C=C\[C@@H]2C[C@@]2(C(=O)NS(=O)(=O)N2CCCC2)NC(=O)C2C[C@@H](OC(=O)NC(CN3CCOCC3)c3ccccc3)CN2C1=O (stereo partly drawn) [Compound 112, (1S,4R,6S,14S,18R)-(2-Morpholin-4-yl-1-phenyl-ethyl)-carbamic acid 14-tert-butoxycarbonylamino-2,15-dioxo-4-(pyrrolidine-1-sulfonylaminocarbonyl)-3,16-diaza-tricyclo[14.3.0.0^4,6]nonadec-7-en-18-yl ester] and CC(C)(C)OC(=O)N[C@H]1CCCCC/C=C\[C@@H]2C[C@@]2(C(=O)NS(=O)(=O)N2CCNCC2)NC(=O)[C@@H]2C[C@@H](OC(=O)N3Cc4ccccc4C3)CN2C1=O [Compound 120, (1S,4R,6S,14S,18R)-1,3-Dihydro-isoindole-2-carboxylic acid 14-tert-butoxycarbonylamino-4-(piperazine-1-sulfonyl-aminocarbonyl)-2,15-dioxo-3,16-diaza-tricyclo[14.3.0.0^4,6]nonadec-7-en-18-yl ester] cannot be ordered by pIC50: over 7.00 for the first, over 7.00 for the second.
